This passage reports RP-LC retention time results from the METLIN SMRT retention time set (Domingo-Almenara et al. 2019).

Structures are written as SMILES.

The nature of this data set: gradient 5% acetonitrile 3 min, to 50% in 2 min, to 85% in 15 min, held 3 min, 100 µL/min. The conditions noted are these: column: Zorbax Extend-C18 2.1 x 50 mm; eluents: water / acetonitrile, 0.1% formic acid. Summed up:
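Values are retention times taken from adduct peaks that software picked and an analyst inspected. The pure standards were run as mixtures of ~100 molecules on HPLC linked to a quadrupole time-of-flight mass spectrometer, in positive and negative ionization mode. A Zorbax Extend-C18 column (2.1 × 50 mm, 1.8 μm) was used at 100 μL/min with water and acetonitrile, each including 0.1% formic acid.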
The compound `Cc1[nH]c(C)c(S(=O)(=O)N2CCC(C(=O)NC3CCC(C)CC3)CC2)c1C(=O)N1CCCCC1` (stereo not given) displayed an RP-LC retention time of 778 s.
Next, `CCCn1cc(C2=CCN(C(=O)NCC3CCCO3)CC2)c2cccnc21` (stereo not given): 719 s; `CCOc1ccc(NC(=O)Cn2nc(N3CCOCC3)c3ccccc3c2=O)cc1`: 774 s; `CCCNC(=O)C1CCN(S(C)(=O)=O)c2ccccc2O1` (stereo not given): 708 s.
`CCS(=O)(=O)N1CC(=O)N(c2ccc(F)cc2C)C(C)(C(=O)NC2CCCCCCC2)C1` (stereo not given) returned an RP-LC retention time of 997 s.
In the case of `COc1ccc(-c2nnc(COc3ccc(NC(=O)Cc4cccs4)cc3)o2)cc1`, the RP-LC retention time is 900 s.
As for `Cc1ccc(C(=O)N2CCc3nc(-c4ccc(F)cc4)ncc3C2)cc1C`, the figure is 901 s; as for `COC1C(=O)N(CC2CC2)C12CCN(S(=O)(=O)c1cccc3cccnc13)CC2` (stereo not given), 790 s.
As for `CCc1ccc(S(=O)(=O)c2cnc(N3CCN(c4ccccc4Cl)CC3)nc2N)cc1`, the figure is 1290 s.
As for `Cc1ccc(C)c(Nc2c(-c3ccccc3)nc3ncccn23)c1`, the figure is 815 s; as for `COc1ccc(OC)c(NS(=O)(=O)c2cc3n(c2)CCCNC3=O)c1`, 639 s.
As to `O=C(CSc1nnc2c3sc(N4CCCC4)nc3ncn12)Nc1cccc(Cl)c1`, the RP-LC retention time was found to be 874 s.
Next, `O=C(NCC1CCCO1)C(=O)Nc1ccc(OC(F)(F)F)cc1` (stereo not given): 834 s; `CCCn1c(C)cnc1C1CN(S(=O)(=O)c2ccccc2Cl)C1`: 660 s; `CCN(CC)CCCNC(=O)C1CCN(C(=O)c2oc3cc4sc(N(C)C)nc4cc3c2C)CC1`: 564 s.
Next, `O=C(NCc1cccs1)c1nnc(-c2ccc(S(=O)(=O)N3CCCC3)cc2)o1`: 849 s.
`Cc1ccc(Sc2nccnc2N2CCCC(C(=O)Nc3ccc(C)c(F)c3)C2)cc1` (stereo not given) gave an RP-LC retention time of 1260 s.
For `CCOC(=O)c1c(S(=O)(=O)N2CCC(C(=O)NC3CCCCCCC3)CC2)c(C)n(C)c1C`, the RP-LC retention time amounted to 932 s.
Next, `CCOc1ccc(NC(=O)CSC2CCCCC2)cc1`: 975 s.
Next, `O=C(C1c2ccccc2CCN1C(=O)C1CC1)N1CCN(c2ccc(F)cc2)CC1` (stereo not given): 943 s.
As for `CC(C)(C)OC(=O)Cn1cnc2c(-c3cccc(Cl)c3)csc2c1=O`, the figure is 1130 s; as for `O=C(NCc1cscn1)C1CCN(S(=O)(=O)c2cccc(Cl)c2)CC1`, 747 s; as for `Cc1ccc(Nc2nc3ccncc3n(C(C)C)c2=O)cc1Cl`, 771 s.
Consider `CCc1ccc(NC(=O)C2(C)Oc3cccnc3N(CC)C2=O)cc1` (stereo not given), for which the RP-LC retention time was 982 s.
As for `Cc1nn2c(CNS(=O)(=O)c3ccc4c(c3)OCCO4)c(-c3ccccc3)nc2s1`, the figure is 817 s; as for `O=C(NCc1csc(C2CCCN(C(=O)c3c(F)cccc3F)C2)n1)C1CCC1` (stereo not given), 742 s.
As for `CCn1ccc2c(cc(C(=O)Nc3cccc(OC)c3)n2C)c1=O`, the RP-LC retention time was found to be 748 s.
Compound `COc1ccc(C2CC(=O)c3c(C)nn(-c4nc5ccccc5[nH]4)c3C2)c(OC)c1` (stereo not given) displayed an RP-LC retention time of 1020 s.
Next, `CN(C)c1cc(C(N)=O)c2ccccc2n1`: 694 s; `Cc1ccc2c(Nc3ccc(Cl)cc3)c(-c3nc(C)no3)cnc2n1`: 785 s; `O=C(O)c1ccccc1N1C(=O)C2C3C=CC(C3)C2C1=O` (stereo not given): 621 s.
Next, `COc1ccc(Oc2cc3c(cc2NC(=O)Nc2ccccc2)n(C)c(=O)n3C)cc1`: 893 s; `Cc1cccc(C)c1NC(=O)Cn1c(C)nc2onc(C)c2c1=O`: 845 s; `Cc1ccc2c(c1)C(=O)C1(O)CCN(c3ccccc3)C1=N2` (stereo not given): 646 s.
As for `Cc1ccc(Cl)cc1NC(=O)CSc1nnc2c3cc(-c4ccc(F)cc4)nn3ccn12`, the figure is 618 s; as for `Cn1cc(CCN2CCC(C(=O)NCc3ccc4c(c3)OCO4)CC2)c2cccnc21`, 584 s.
Compound `Cc1c(CN2CCC(N(C(=O)NCCc3ccccc3)C3CCOCC3)CC2)cnn1C` registered an RP-LC retention time of 627 s.
As for `COc1ccc(CSc2nccc3c2ccn3CC(=O)N2CCN(c3ccccn3)CC2)cc1`, the figure is 592 s.
In the case of `COc1cccc(NC(=O)N2CC(c3nc(C)no3)C3(CCOCC3)C2)c1` (stereo not given), the RP-LC retention time was determined as 703 s.
Next, `CCOc1cccc2cc(C(=O)N3CCOCC3)oc12`: 718 s; `Cc1noc(C)c1S(=O)(=O)N1CC(n2cc(C(=O)NCC3CC3)nn2)C1`: 757 s; `Cc1ccc(N2CC(c3nc(-c4ccncc4)no3)CC2=O)cc1Cl` (stereo not given): 845 s.
On to `CCCn1ccc2sc(C)c(C(=O)NCC3CCCCC3)c2c1=O`, for which the RP-LC retention time is 1010 s.
Next, `O=C(CN1CCc2ccccc2C1C(=O)N1CCCCC1)NCc1ccc(Cl)cc1` (stereo not given): 910 s; `CCc1ccc2[nH]c3c(c(=O)c2c1)CN(CC(=O)NCc1ccc(OC)cc1)CC3`: 612 s; `CN(Cc1ccco1)c1nc(-c2ccc(Cl)cc2)nc2ccccc12`: 858 s.
Next, `Cc1cc(C)cc(Oc2nccn3c(=O)n(CC(=O)Nc4ccc(F)cc4)nc23)c1`: 905 s; `COc1ccc(S(=O)(=O)Nc2cc(-c3cn4cccc(C)c4n3)ccc2C)cc1OC`: 662 s; `CN(C)CCNC(=O)C1CCN(c2nccnc2Sc2ccccc2)CC1`: 629 s.
Next, `O=C(CSc1nc(N2CCCCC2)nc2ccccc12)Nc1ccc2c(c1)OCO2`: 694 s; `CCc1ccc(C(=O)N2CCN(c3nnc4ccccn34)CC2)cc1`: 681 s.
As to `O=c1c2cc(-c3ccc(F)cc3)nn2cnn1Cc1nc(-c2ccccc2Br)no1`, the RP-LC retention time amounted to 1140 s.
Next, `CCC(=O)N1CCc2cc(CNS(=O)(=O)c3ccccc3)ccc21`: 790 s.
As for `COc1ccc(S(=O)(=O)N2CCCC2)cc1C(=O)Nc1cccc2cnccc12`, the figure is 598 s; as for `COC(=O)c1cc2c(=O)n(-c3cccc(C(F)(F)F)c3)ccc2nc1C`, 917 s; as for `c1ccc2sc(SCc3cn4cccnc4n3)nc2c1`, 622 s.
For the compound `Cc1ccc(-c2noc(CN3N=NC4C(=O)N(c5ccccc5)C(=O)C43)n2)cc1C` (stereo not given), the RP-LC retention time came out at 1020 s.
Next, `Cc1ccccc1CNC(=O)C1(C)CCCN(C(=O)Nc2cccc(F)c2)C1` (stereo not given): 937 s; `CCc1nc2sc(C)nn2c1S(=O)(=O)N1CCOCC1`: 699 s; `CC(C)CNC(=O)CCc1nc2ccccc2n(CC(=O)N2CCCc3ccccc32)c1=O`: 990 s.
`O=C(Nc1ccc(S(=O)(=O)Nc2nccs2)cc1)c1ccc([N+](=O)[O-])o1` came in with an RP-LC retention time of 641 s.
Compound `O=C(Nc1cnc(-c2cccc(Cl)c2)nc1)C1CCCC1` had an RP-LC retention time of 1100 s.
Next, `O=C1CC(C(F)(F)F)c2c(c(C(=O)O)cn2-c2cccc(F)c2)N1` (stereo not given): 747 s.
As for `CCN1CCCn2cc(S(=O)(=O)Nc3ccccc3C)cc2C1=O`, the figure is 720 s; as for `CC1(C)CC(=O)c2cn(-c3ccc(Cl)cc3)c(=O)c(C(=O)N3CCC(N4CCCCC4)CC3)c2C1`, 667 s; as for `CCCN(CC1CCOC1)C(=O)Nc1ccc(C)cc1Cl` (stereo not given), 902 s.
`COCCCNC(=O)CSc1nccc2c1ccn2Cc1ccccc1`: the RP-LC retention time is 683 s.
As for `Cn1nc(C(=O)NCc2cc(-c3cccs3)on2)ccc1=O`, the figure is 650 s.
Next, `Oc1ccc(-c2nc3ncccn3c2Nc2ccc(Cl)cc2)cc1`: 666 s; `COc1ccc(C2C(C(=O)N3CCCC3)c3cc(OC)c(OC)cc3C(=O)N2C)cc1OC` (stereo not given): 660 s.
Take `COc1ccccc1-c1nc(Cn2nnc(-c3nc(-c4ccc(Cl)c(F)c4)no3)c2C)c(C)o1`: the RP-LC retention time was determined as 1240 s.
In turn, `COc1ccc(Br)cc1Cn1nnc(C(=O)NCc2cccs2)c1N` displayed an RP-LC retention time of 825 s.
As for `COc1ccc(-c2ncccc2CNS(=O)(=O)c2cccc(C#N)c2)cc1`, the figure is 660 s.
As for `O=C(c1ccc2c(c1)OCO2)N1CC(c2noc(C3CCCN3CC3CC3)n2)C1` (stereo not given), the figure is 610 s; as for `NC(=O)c1cc[nH]c1C1CCCN(S(=O)(=O)c2cnc[nH]2)C1` (stereo not given), 574 s.
Next, `COc1cccc(NS(=O)(=O)c2cc3n(c2)CCN(C(C)C)C3=O)c1`: 733 s; `O=C(Cc1c(F)cccc1Cl)Nc1cnn(-c2ncc(N3CCCC3)cn2)c1`: 771 s; `CN1C(=O)N(C)C2(CCN(C(=O)c3ccco3)CC2)C1=O`: 597 s.
In turn, `Cc1ccccc1N1CCN(C(=O)c2ccnc(N3CCCC3)n2)CC1` returned an RP-LC retention time of 996 s.
Next, `CC(C)C(=O)N1N=C(c2ccc(NS(=O)(=O)c3ccccc3)cc2)CC1c1ccco1` (stereo not given): 870 s.
